In the test the target is T1, KRAS G12C 1-169, his-tagged protein, GDP-loaded (Homo sapiens, UniProt P01116, G12C).
T1 construct: KRAS G12C 1-169, his-tagged protein, GDP-loaded
Briefly: Biochemical assay: covalent modification of KRAS G12C measured by mass spectrometry (RapidFire/TOF or Q-Exactive). Particulars: for Binding %: covalent binding to (modification of) KRAS G12C after a ten minute incubation period. It is filed as binding. The method, boiled down: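 GDP-loaded KRAS G12C 1-169 (his-tagged) at 2 μM or 0.5 μM in 20 mM Hepes, 150 mM NaCl, 1 mM MgCl2, incubated with compound at 100, 30 or 10 μM at room temperature for 10 min, 30 min, 2 h or 24 h, then quenched with formic acid. Intact-protein LC-MS, deconvolved; percent modification from modified versus unmodified protein.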

Binding % and binding activity data for 20 compounds are collected here from patent US11377441B2, “Covalent inhibitors of KRAS” (Araxes Pharma LLC, priority 2017, dated 2022).

For the compound `C=CC(=O)N1C[C@H](C)N(c2nc(N3CC(N(C)C)C3)nc3c(F)c(-c4c(C)ccc5[nH]nc(C6CC6)c45)c(Cl)cc23)C[C@@H]1C` (atropisomer, axis not shown) [Compound 254, 1-((2S,5S)-4-((S)-6-chloro-7-(3-cyclopropyl-5-methyl-1H-indazol-4-yl)-2-(3-(dimethylamino)azetidin-1-yl)-8-fluoroquinazolin-4-yl)-2,5-dimethylpiperazin-1-yl)prop-2-en-1-one], the Binding % result is “+ (+ indicates binding activity greater than 0% and up to 50%)”.
Same read-out and setting: next, `C=CC(=O)N1C[C@H](C)N(c2nc(N3CC(N(C)C)C3)nc3c(F)c(-c4c(C)ccc5[nH]nc(C6CC6)c45)c(Cl)cc23)C[C@@H]1C` (atropisomer, axis not shown) [Compound 255, 1-((2S,5S)-4-((R)-6-chloro-7-(3-cyclopropyl-5-methyl-1H-indazol-4-yl)-2-(3-(dimethylamino)azetidin-1-yl)-8-fluoroquinazolin-4-yl)-2,5-dimethylpiperazin-1-yl)prop-2-en-1-one]: “+ (+ indicates binding activity greater than 0% and up to 50%)”; `C=CC(=O)N1C[C@H](C)N(c2nc(OC[C@H]3CCCN3C)nc3c(F)c(-c4c(C)ccc5cnn(C)c45)c(Cl)cc23)C[C@H]1C` (atropisomer, axis not shown) [Compound 261, 1-((2R,5S)-4-((S)-6-chloro-7-(1,6-dimethyl-1H-indazol-7-yl)-8-fluoro-2-(((R)-1-methylpyrrolidin-2-yl)methoxy)quinazolin-4-yl)-2,5-dimethylpiperazin-1-yl)prop-2-en-1-one]: “+++ (+++ indicates binding activity greater than 80%)”.
Turning to `C=CC(=O)N1C[C@H](C)N(c2nc(N3CC(N(C)C)C3)nc3c(F)c(-c4c(C)ccc5[nH]ncc45)c(Cl)cc23)C[C@H]1C` (atropisomer, axis not shown) [reference compound], under “Example 14 comparative biochemical data, tested according to the above procedures (Example 1)”, the binding activity came to 71%.
As to `C=CC(=O)N1C[C@H](C)N(c2nc(N3CC(N(C)C)C3)nc3c(F)c(-c4cccc5[nH]ncc45)c(Cl)cc23)C[C@H]1C` [Compound 1, 1-((2R,5S)-4-(6-chloro-2-(3-(dimethylamino)azetidin-1-yl)-8-fluoro-7-(1H-indazol-4-yl)quinazolin-4-yl)-2,5-dimethylpiperazin-1-yl)prop-2-en-1-one], the Binding % entry is reported as “++ (++ indicates binding activity from 50 to 80%)”.
On the same count and under the same terms, the result for `C=CC(=O)N1C[C@H](C)N(c2nc(N3CC(N(C)C)C3)nc3c(F)c(-c4cccc5[nH]nc(N)c45)c(Cl)cc23)C[C@H]1C` [Compound 2, 1-((2R,5S)-4-(7-(3-amino-1H-indazol-4-yl)-6-chloro-2-(3-(dimethylamino)azetidin-1-yl)-8-fluoroquinazolin-4-yl)-2,5-dimethylpiperazin-1-yl)prop-2-en-1-one] reads “++ (++ indicates binding activity from 50 to 80%)”.
With `C=CC(=O)N1C[C@H](C)N(c2nc(N3CC(N(C)C)C3)nc3c(F)c(-c4c(C)ccc5[nH]nc(N)c45)c(Cl)cc23)C[C@H]1C` [Compound 3, 1-((2R,5S)-4-(7-(3-amino-5-methyl-1H-indazol-4-yl)-6-chloro-2-(3-(dimethylamino)azetidin-1-yl)-8-fluoroquinazolin-4-yl)-2,5-dimethylpiperazin-1-yl)prop-2-en-1-one], the Binding % entry is “+++ (+++ indicates binding activity greater than 80%)”.
Same read-out and setting: the result for `C=CC(=O)N1C[C@H](C)N(c2nc(N3CC(N(C)C)C3)nc3c(F)c(-c4c(C)ccc5[nH]nc(NC)c45)c(Cl)cc23)C[C@H]1C` [Compound 13, 1-((2R,5S)-4-(6-chloro-2-(3-(dimethylamino)azetidin-1-yl)-8-fluoro-7-(5-methyl-3-(methylamino)-1H-indazol-4-yl)quinazolin-4-yl)-2,5-dimethylpiperazin-1-yl)prop-2-en-1-one] reads “++ (++ indicates binding activity from 50 to 80%)”; that for `C=CC(=O)N1C[C@H](C)N(c2nc(N3CC(N(C)C)C3)nc3c(F)c(-c4c(C)ccc5c(N)n[nH]c45)c(Cl)cc23)C[C@H]1C` [Compound 22, 1-((2R,5S)-4-(7-(3-amino-6-methyl-1H-indazol-7-yl)-6-chloro-2-(3-(dimethylamino)azetidin-1-yl)-8-fluoroquinazolin-4-yl)-2,5-dimethylpiperazin-1-yl)prop-2-en-1-one], “+ (+ indicates binding activity greater than 0% and up to 50%)”; that for `C=CC(=O)N1C[C@H](C)N(c2nc(N3CC(N(C)C)C3)nc3c(F)c(-c4c(C)ccc5[nH]nc(Cl)c45)c(Cl)cc23)C[C@H]1C` [Compound 23, 1-((2R,5S)-4-(6-chloro-7-(3-chloro-5-methyl-1H-indazol-4-yl)-2-(3-(dimethylamino)azetidin-1-yl)-8-fluoroquinazolin-4-yl)-2,5-dimethylpiperazin-1-yl)prop-2-en-1-one], “+++ (+++ indicates binding activity greater than 80%)”.
Consider `C=CC(=O)N1C[C@H](C)N(c2nc(N3CC(N(C)C)C3)nc3c(F)c(-c4ccc(F)c5[nH]ncc45)c(Cl)cc23)C[C@H]1C` [Compound 29, 1-((2R,5S)-4-(6-chloro-2-(3-(dimethylamino)azetidin-1-yl)-8-fluoro-7-(7-fluoro-1H-indazol-4-yl)quinazolin-4-yl)-2,5-dimethylpiperazin-1-yl)prop-2-en-1-one], for which the Binding % entry is “+ (+ indicates binding activity greater than 0% and up to 50%)”.
Take `C=CC(=O)N1C[C@H](C)N(c2nc(N3CC(N(C)C)C3)nc3c(F)c(-c4ccc(Cl)c5[nH]ncc45)c(Cl)cc23)C[C@H]1C` [Compound 30, 1-((2R,5S)-4-(6-chloro-7-(7-chloro-1H-indazol-4-yl)-2-(3-(dimethylamino)azetidin-1-yl)-8-fluoroquinazolin-4-yl)-2,5-dimethylpiperazin-1-yl)prop-2-en-1-one]: the Binding % entry was “+ (+ indicates binding activity greater than 0% and up to 50%)”.
Turning to `C=CC(=O)N1C[C@H](C)N(c2nc(N3CC(N(C)C)C3)nc3c(F)c(-c4c(C)ccc5[nH]nc(NC6CCC6)c45)c(Cl)cc23)C[C@H]1C` [Compound 36, 1-((2R,5S)-4-(6-chloro-7-(3-(cyclobutylamino)-5-methyl-1H-indazol-4-yl)-2-(3-(dimethylamino)azetidin-1-yl)-8-fluoroquinazolin-4-yl)-2,5-dimethylpiperazin-1-yl)prop-2-en-1-one], the Binding % result was “+ (+ indicates binding activity greater than 0% and up to 50%)”.
Still for that read-out and setting: the result for `C=CC(=O)N1C[C@H](C)N(c2nc(N3CC(N(C)C)C3)nc3c(F)c(-c4c(C)ccc5[nH]nc(NC(C)C)c45)c(Cl)cc23)C[C@H]1C` [Compound 39, 1-((2R,5S)-4-(6-chloro-2-(3-(dimethylamino)azetidin-1-yl)-8-fluoro-7-(3-(isopropylamino)-5-methyl-1H-indazol-4-yl)quinazolin-4-yl)-2,5-dimethylpiperazin-1-yl)prop-2-en-1-one] reads “+ (+ indicates binding activity greater than 0% and up to 50%)”; that for `C=CC(=O)N1C[C@H](C)N(c2nc(N3CC(N(C)C)C3)nc3c(F)c(-c4c(C)ccc5[nH]nc(Br)c45)c(Cl)cc23)C[C@H]1C` [Compound 40, 1-((2R,5S)-4-(7-(3-bromo-5-methyl-1H-indazol-4-yl)-6-chloro-2-(3-(dimethylamino)azetidin-1-yl)-8-fluoroquinazolin-4-yl)-2,5-dimethylpiperazin-1-yl)prop-2-en-1-one], “+++ (+++ indicates binding activity greater than 80%)”.
The same measure, in the same setting: next, `C=CC(=O)N1[C@H](C)CN(c2nc(N3CC(N(C)C)C3)nc3c(F)c(-c4c(C)ccc5[nH]nc(N)c45)c(Cl)cc23)C[C@@H]1C` [Compound 41, 1-((2S,6R)-4-(7-(3-amino-5-methyl-1H-indazol-4-yl)-6-chloro-2-(3-(dimethylamino)azetidin-1-yl)-8-fluoroquinazolin-4-yl)-2,6-dimethylpiperazin-1-yl)prop-2-en-1-one]: “+++ (+++ indicates binding activity greater than 80%)”; `C=CC(=O)N1C[C@H](C)N(c2nc(N3CC(N(C)C)C3)nc3c(F)c(-c4c(C)ccc5[nH]nc(N(C)C)c45)c(Cl)cc23)C[C@H]1C` [Compound 42, 1-((2R,5S)-4-(6-chloro-7-(3-(dimethylamino)-5-methyl-1H-indazol-4-yl)-2-(3-(dimethylamino)azetidin-1-yl)-8-fluoroquinazolin-4-yl)-2,5-dimethylpiperazin-1-yl)prop-2-en-1-one]: “+ (+ indicates binding activity greater than 0% and up to 50%)”.
On the same count and under the same terms, the result for `C=CC(=O)N1CC2CCC(C1)N2c1nc(N2CC(N(C)C)C2)nc2c(F)c(-c3c(C)ccc4[nH]nc(N)c34)c(Cl)cc12` [Compound 43, 1-((1R,5S)-8-(7-(3-amino-5-methyl-1H-indazol-4-yl)-6-chloro-2-(3-(dimethylamino)azetidin-1-yl)-8-fluoroquinazolin-4-yl)-3,8-diazabicyclo[3.2.1]oc-tan-3-yl)prop-2-en-1-one] reads “+ (+ indicates binding activity greater than 0% and up to 50%)”.
For `C=CC(=O)N1C[C@H](C)N(c2nc(N3CC(N(C)C)C3)nc3c(F)c(-c4cccc5ncccc45)c(Cl)cc23)C[C@H]1C` [Compound 44, 1-((2R,5S)-4-(6-chloro-2-(3-(dimethylamino)azetidin-1-yl)-8-fluoro-7-(quinolin-5-yl)quinazolin-4-yl)-2,5-dimethylpiperazin-1-yl)prop-2-en-1-one], the Binding % entry is “++ (++ indicates binding activity from 50 to 80%)”.
Still for that read-out and setting: next, `C=CC(=O)N1C[C@@H](C)N(c2nc(N3CC(N(C)C)C3)nc3c(F)c(-c4c(C)ccc5[nH]nc(N)c45)c(Cl)cc23)[C@@H](C)C1` [Compound 45, 1-((3R,5S)-4-(7-(3-amino-5-methyl-1H-indazol-4-yl)-6-chloro-2-(3-(dimethylamino)azetidin-1-yl)-8-fluoroquinazolin-4-yl)-3,5-dimethylpiperazin-1-yl)prop-2-en-1-one]: “+++ (+++ indicates binding activity greater than 80%)”.
